Results on 17 compounds are retold here after ChEMBL document CHEMBL1147148, “Cytotoxic withanolides from Tubocapsicum anomalum” (J Nat Prod, 2007).

Values after ≈ are worked out from the molar mass of the structure shown.

One assay has as its system MCF7. In words: Cytotoxicity against human MCF7 cells by MTT method. It is filed as cell-based.
A further assay concerns MDA-MB-231. Put plainly: Cytotoxicity against human MDA-MB-231 cells by MTT method. It is filed as cell-based.
The nature of assay [1]: Cytotoxicity against human Hep3B cells by MTT method. It is filed as cell-based, Hep 3B2.
The subject of another assay is MRC5. Put plainly: Cytotoxicity against human MRC5 cells by MTT method. The assay is classed as cell-based.
Another assay deals with A549. Put plainly: Cytotoxicity against human A549 cells by MTT method. The assay is classed as cell-based.
Another assay concerns HepG2. In words: Cytotoxicity against human HepG2 cells by MTT method. It is filed as cell-based.

As to `CC1=C(C)C(=O)O[C@@H]([C@@H](C)[C@@]2(O)CC[C@H]3[C@@H]4C[C@H]5O[C@]56[C@@H](O)C=CC(=O)[C@]6(C)[C@H]4CC[C@@]32C)C1`, the concentration for half-maximal inhibition (IC50) is 1.98 µg/mL (≈ 4.21 µM) with MCF7; 0.99 µg/mL (≈ 2.1 µM) in the assay on MDA-MB-231; 0.8 µg/mL (≈ 1.7 µM) in assay [1]; 0.81 µg/mL (≈ 1.72 µM) with MRC5; 0.88 µg/mL (≈ 1.87 µM) in the assay on A549; 0.64 µg/mL (≈ 1.36 µM) in the assay with HepG2.

As to `CC1=C(C)C(=O)O[C@@H]([C@](C)(O)[C@@]2(O)CC[C@H]3[C@@H]4C[C@H]5O[C@]56[C@@H](O)C=CC(=O)[C@]6(C)[C@H]4CC[C@@]32C)C1`, the IC50 in the assay with MCF7 amounted to 1.45 µg/mL (≈ 2.98 µM); in the assay with MDA-MB-231, 0.71 µg/mL (≈ 1.46 µM); in assay [1], 0.85 µg/mL (≈ 1.75 µM); in the assay on MRC5, 1.89 µg/mL (≈ 3.88 µM); in the assay on A549, 0.72 µg/mL (≈ 1.48 µM); with HepG2, 0.49 µg/mL (≈ 1.01 µM).

Regarding `CC1=C(C)C(=O)O[C@@H]([C@@H](C)[C@@]2(O)CC[C@H]3[C@@H]4C[C@H](O)[C@]5(O)[C@@H](O)C=CC(=O)[C@]5(C)[C@H]4CC[C@@]32C)C1`, the half-maximal inhibitory concentration (IC50) in the assay with MCF7 is over 20 µg/mL; in the assay with MDA-MB-231, 13.5 µg/mL (≈ 27.6 µM); in assay [1], 7.19 µg/mL (≈ 14.7 µM); in the assay with A549 it was 8.01 µg/mL (≈ 16.4 µM); in the assay on HepG2, over 20 µg/mL.

For `CC1=C(C)C(=O)O[C@@H]([C@](C)(O)[C@@]23O[C@@H]2C[C@H]2[C@@H]4C[C@H]5O[C@]56[C@@H](O)C=CC(=O)[C@]6(C)[C@H]4CC[C@@]23C)C1` [20-HYDROXYTUBOCAPSANOLIDE A], the 50% inhibitory concentration (IC50) in the assay with MCF7 is 1.77 µg/mL (≈ 3.65 µM); in the assay with MDA-MB-231 it was 0.99 µg/mL (≈ 2.04 µM); in assay [1], 0.99 µg/mL (≈ 2.04 µM); in the assay on MRC5, 1.36 µg/mL (≈ 2.81 µM); in the assay with A549 it was 1.42 µg/mL (≈ 2.93 µM); in the assay on HepG2, 0.73 µg/mL (≈ 1.51 µM).

As for `CC1=C(C)[C@H](O)[C@H]([C@@H](C)[C@@]23O[C@@H]2C[C@H]2[C@@H]4C[C@H]5O[C@]56[C@@H](O)C=CC(=O)[C@]6(C)[C@H]4CC[C@@]23C)OC1=O` [23-HYDROXYTUBOCAPSANOLIDE A], the IC50 in the assay with MCF7 came to 2.05 µg/mL (≈ 4.23 µM); in the assay on MDA-MB-231, 1.19 µg/mL (≈ 2.46 µM); in assay [1], 0.49 µg/mL (≈ 1.01 µM); in the assay with MRC5 it was 0.9 µg/mL (≈ 1.86 µM); with A549 it was 0.79 µg/mL (≈ 1.63 µM); in the assay with HepG2, 0.44 µg/mL (≈ 0.908 µM).

As for `C[C@@]12CC([C@@]3(O)CC[C@H]4[C@@H]5C[C@H]6O[C@]67[C@@H](O)C=CC(=O)[C@]7(C)[C@H]5CC[C@@]43C)[C@@H](C1)OC(=O)[C@]2(C)O` (stereo partly drawn) [ANOMANOLIDE A], the concentration for half-maximal inhibition (IC50) is 2.31 µg/mL (≈ 4.75 µM) in the assay on MCF7; 1.37 µg/mL (≈ 2.82 µM) in the assay with MDA-MB-231; 3.63 µg/mL (≈ 7.46 µM) in assay [1]; 1.91 µg/mL (≈ 3.93 µM) with MRC5; 1.01 µg/mL (≈ 2.08 µM) with A549; 3.11 µg/mL (≈ 6.39 µM) in the assay on HepG2.

Consider `C[C@@]12CC([C@@]3(O)CC[C@H]4[C@@H]5C[C@H](O)[C@]6(O)[C@@H](O)C=CC(=O)[C@]6(C)[C@H]5CC[C@@]43C)[C@@H](C1)OC(=O)[C@]2(C)O` (stereo partly drawn) [ANOMANOLIDE B], for which the IC50 with MCF7 was determined as 4.84 µg/mL (≈ 9.59 µM); with MDA-MB-231 it was 0.7 µg/mL (≈ 1.39 µM); in assay [1] it was 3.17 µg/mL (≈ 6.28 µM); with MRC5, 0.2 µg/mL (≈ 0.396 µM); in the assay on A549, 1.49 µg/mL (≈ 2.95 µM); in the assay with HepG2, 0.97 µg/mL (≈ 1.92 µM).

For the compound `C[C@@]12CC([C@@]3(O)[C@H](O)C[C@H]4[C@@H]5C[C@H]6O[C@]67[C@@H](O)C=CC(=O)[C@]7(C)[C@H]5CC[C@@]43C)[C@@H](C1)OC(=O)[C@]2(C)O` (stereo partly drawn) [ANOMANOLIDE C], the IC50 in the assay with MCF7 is 8.01 µg/mL (≈ 15.9 µM); in the assay on MDA-MB-231, 1.58 µg/mL (≈ 3.14 µM); in assay [1], 1.85 µg/mL (≈ 3.68 µM); with A549, 2.8 µg/mL (≈ 5.57 µM); with HepG2, 4.41 µg/mL (≈ 8.77 µM).

Take `C[C@@]12CC([C@@]3(O)[C@H](O)C[C@H]4[C@@H]5C[C@H](Cl)[C@]6(O)[C@@H](O)C=CC(=O)[C@]6(C)[C@H]5CC[C@@]43C)[C@@H](C1)OC(=O)[C@]2(C)O` (stereo partly drawn) [ANOMANOLIDE D]: the 50% inhibitory concentration (IC50) in the assay with MCF7 was over 20 µg/mL; in the assay with MDA-MB-231, over 20 µg/mL; in assay [1], 19 µg/mL (≈ 35.3 µM); with A549, over 20 µg/mL; with HepG2, over 20 µg/mL.

As to `C[C@@]12CC([C@@]3(O)[C@H](O)C[C@H]4[C@@H]5C[C@H](O)[C@]6(O)CC=CC(=O)[C@]6(C)[C@H]5CC[C@@]43C)[C@@H](C1)OC(=O)[C@]2(C)O` (stereo partly drawn) [ANOMANOLIDE E], the 50% inhibitory concentration (IC50) (with MCF7; in the assay with MDA-MB-231; in assay [1]; in the assay with A549; with HepG2) was over 20 µg/mL in each case.

On to `C[C@@]12CC([C@@]3(O)[C@H](O)C[C@H]4[C@@H]5CC[C@]6(O)[C@@H](O)C=CC(=O)[C@]6(C)[C@H]5CC[C@@]43C)[C@@H](C1)OC(=O)[C@]2(C)O` (stereo partly drawn) [ANOMANOLIDE F], for which the half-maximal inhibitory concentration (IC50) (in the assay on MCF7; with MDA-MB-231; in assay [1]; with A549; in the assay with HepG2) was over 20 µg/mL throughout.

Turning to `COc1cccc2c1C(=O)c1c(O)c3c(c(O)c1C2=O)C[C@@](O)(C(=O)CO)C[C@@H]3O[C@H]1C[C@H](N)[C@H](O)[C@H](C)O1` [DOXORUBICIN], the IC50 came to 0.19 µg/mL (≈ 0.35 µM) in the assay on MDA-MB-231; 0.45 µg/mL (≈ 0.828 µM) in assay [1]; 0.77 µg/mL (≈ 1.42 µM) with MRC5; 0.42 µg/mL (≈ 0.773 µM) in the assay on A549; 0.46 µg/mL (≈ 0.846 µM) in the assay on HepG2.

Consider `CC1=C(C)C(=O)O[C@@H]([C@@H](C)[C@@]23O[C@@H]2C[C@H]2[C@@H]4C[C@H]5O[C@]56[C@@H](O)C=CC(=O)[C@]6(C)[C@H]4CC[C@@]23C)C1` [TUBOCAPSANOLIDE A], for which the IC50 is 1.47 µg/mL (≈ 3.14 µM) with MCF7; 0.22 µg/mL (≈ 0.469 µM) in the assay on MDA-MB-231; 0.42 µg/mL (≈ 0.896 µM) in assay [1]; 0.73 µg/mL (≈ 1.56 µM) with MRC5; 0.47 µg/mL (≈ 1 µM) in the assay with A549; 0.86 µg/mL (≈ 1.84 µM) with HepG2.

Take `CC1=C(C)C(=O)O[C@@H]([C@@H](C)[C@@]2(C)C3=C(C[C@H]2O)[C@@H]2C[C@H](O)[C@]4(O)[C@@H](O)C=CC(=O)[C@]4(C)[C@H]2CC3)C1` [TUBOCAPSENOLIDE F]: the half-maximal inhibitory concentration (IC50) is 14.7 µg/mL (≈ 30.2 µM) in the assay with MCF7; 8.41 µg/mL (≈ 17.3 µM) in the assay with MDA-MB-231; 15.1 µg/mL (≈ 31 µM) in assay [1]; 6.04 µg/mL (≈ 12.4 µM) in the assay with A549; over 20 µg/mL with HepG2.

Take `CC1=C(C)C(=O)O[C@@H]([C@@H](C)[C@@]2(C)C3=C(C[C@H]2O)[C@@H]2C[C@H](Cl)[C@]4(O)[C@@H](O)C=CC(=O)[C@]4(C)[C@H]2CC3)C1` [TUBOCAPSENOLIDE G]: the 50% inhibitory concentration (IC50) in the assay on MCF7 was over 20 µg/mL; in the assay on MDA-MB-231 it was over 20 µg/mL; in assay [1] it was over 20 µg/mL; in the assay with A549, 19.9 µg/mL (≈ 39.5 µM); in the assay on HepG2, 19.1 µg/mL (≈ 37.9 µM).

As to `C[C@]1(O)C[C@H]2OC(=O)[C@]1(C)C[C@H]2[C@@]1(O)[C@H](O)C[C@H]2[C@@H]3C[C@H](Cl)[C@]4(O)[C@@H](O)C=CC(=O)[C@]4(C)[C@H]3CC[C@@]21C` [TUBONOLIDE A], the IC50 in the assay with MCF7 was 12 µg/mL (≈ 22.3 µM); in the assay with MDA-MB-231 it was over 20 µg/mL; in assay [1], 6.54 µg/mL (≈ 12.1 µM); in the assay on A549 it was 5.91 µg/mL (≈ 11 µM); in the assay with HepG2, 5.09 µg/mL (≈ 9.44 µM).

Take `CC1=C(CO)C(=O)O[C@@H]([C@@H](C)[C@H]2CC[C@H]3[C@@H]4C[C@H]5O[C@]56[C@@H](O)C=CC(=O)[C@]6(C)[C@H]4CC[C@]23C)C1` [WITHAFERIN A]: the IC50 turned out to be 0.05 µg/mL (≈ 0.106 µM) in the assay with MCF7; 0.02 µg/mL (≈ 0.0425 µM) with MDA-MB-231; 0.06 µg/mL (≈ 0.127 µM) in assay [1]; 0.07 µg/mL (≈ 0.149 µM) in the assay on MRC5; 0.02 µg/mL (≈ 0.0425 µM) with A549; 0.06 µg/mL (≈ 0.127 µM) with HepG2.
